How the values were obtained:
[1] = tested on: mismatch DNA sequence 5′-GGAGGAGGTGGAGGAGGA-3′ from the erbB2 (Her2-neu) promoter; test: DNase I footprinting on mismatch DNA; assay type: binding, human; details: polyamide concentrations up to 100 nM
Protocol: Two additional molecules, FA5 [(ImPyβ)4ImβDp] and FA6 [(ImPyβ)5ImβDp], were synthesized in order to target longer regions of GAA repeats in duplex DNA; i.e., (AAG)5 (SEQ ID NO: ______) and (AAG)6 (SEQ ID NO: ______) respectively. […] As another test for sequence specificity, footprinting experiments with FA1 and FA3 and a radiolabeled DNA fragment containing a mismatch DNA sequence 5′-GGAGGAGGTGGAGGAGGA-3′ (SEQ ID NO: ______) were performed.
The first oligonucleotide shown was radiolabeled as above to generate a PCR product labeled on the GAA strand. A 150 bp PCR product containing a (GGA•TCC)6 mismatch sequence was derived from the erbB2 (Her2-neu) promoter in human genomic DNA with the following oligonucleotides: […]

[2] = tested on: frataxin mRNA in GM15850 FRDA lymphoid cell line; test: qRT-PCR of frataxin mRNA, FRDA cell line; assay type: cell-based, human; details: for effect on frataxin mRNA levels, in words: GM15850 FRDA cell line, 7 days incubation
Description: (§1) GAA Specific Polyamides Up Regulate Frataxin mRNA and Protein. To assess whether polyamides alleviate transcription inhibition caused by expanded GAA repeats in the frataxin gene, quantitative real time/reverse transcriptase PCR (qRT-PCR) was used to monitor frataxin mRNA levels in the GM15850 and GM15851 lymphoid cell lines described above; levels of glyceraldehyde 3-phosphate dehydrogenase (GAPDH) mRNA were used as an internal control for each RNA sample; see Example 8. No differences in GAPDH were found between the two cell lines. […] No changes in frataxin mRNA levels were observed on shorter incubation times.
Cell Culture. Epstein Barr virus transformed lymphoblast cell lines GM15850 from a FRDA patient (alleles with 650 and 1030 GAA repeats in the frataxin gene, from the Coriell Cell Repository, Camden, N.J.), and GM15851 from an unaffected sibling (normal range of repeats), were propagated in RMPI 1640 medium with 2 mM L-glutamine and 15% fetal bovine serum at 37° C. in 5% CO2. Cell growth and morphology were monitored by phase contrast microscopy and viability by trypan blue exclusion and an ATP assay (ApoSENSOR™, BioVision). Polyamides were added directly to the culture medium in PBS. Nuclear localization of the polyamides was verified by deconvolution microscopy, by methods well known in the art (see e.g., Dudouet et al., Chem. Biol., 2003, 10: 859-867).
(§2) Real-Time Quantitative RT-PCR. Real-time quantitative RT-PCR (qRT-PCR) analysis was performed essentially as previously described (Chuma, et al., 2003, Hepatology 37:198-207), using the following primers for the frataxin gene: […]
(§3) RNA was standardized by quantification of GAPDH mRNA (Pattyn et al., 2003, Nucleic Acids Res. 31:122-123), and all values are expressed relative to GAPDH. qRT-PCR was performed using iScript One-Step RT-PCR kit with SYBR green (Biorad). Statistical analysis was performed on three independent quantitative RT-PCR experiments for each RNA sample.

[3] = tested on: GM15851 normal lymphoid cells; test: DNA microarray of global gene expression, normal cells; assay type: cell-based, human; details: for number of genes with affected mRNA levels: P≦0.005
Protocol: Effects of Polyamides on Global Gene Expression. DNA microarray analyses (see Example 10) were performed with RNA isolated from GM15850 FRDA and GM15851 normal lymphoid cells that were either untreated or treated with polyamides FA1 (at 1 and 2 μM) or FA2 (at 2 μM) for 7 days on Affymetrix Human Genome U133 Plus 2.0 GeneChips®. These chips contain […] oligonucleotides representing all or nearly all of the genes in the human genome). Experiments were conducted according to manufacturer guidelines. […] Although more genes were judged affected by FA1 at 1 μM than at 2 μM, this difference is largely due to genes whose mRNA levels change by less than […] in either direction, and thus are not highly significant. At 2 μM FA1, 15 genes were increased in expression by greater than 50% and one gene was decreased by 45%. […] For GM15851 cells, two genes were up regulated by FA1, and no genes were down regulated. (Note that the probability that the genes affected in GM15851 cells would be judged significant by chance at P≦0.005 is 0.8-1.0, based on analysis with BRB ArrayTools). […] Strikingly, binding sites for FA1 (5′-AAGAAGAAG-3′, SEQ ID NO: ______) are present in 18/20 genes whose mRNA levels are increased by 1.2-fold or greater in GM15850 cells, although this sequence would be expected to appear at random only once per 262,000 bp in genomic DNA.
DNA Microarrays. FRDA and control lymphoid cells (i.e., lines GM15850 and GM15851, respectively) were incubated with polyamides FA1 (at 1 or 2 μM) or FA2 (at 2 μM), or in the absence of polyamide, in triplicate for seven days prior to RNA purification and microarray analysis. Affymetrix U133A Plus 2.0 GeneChips® were hybridized in groups of eight for each of the three replicates. Raw GeneChip® data were normalized with RMAExpress (Bolstad et al., 2003, Bioinformatics 19:185-193) and the normalized data was filtered to remove probesets called absent on 24 of 24 chips from class comparisons. The Affymetrix probeset-level data was imported to BRB Arraytools (v3.3.0 Beta 3a) selecting the U133 chips used in the experiment and leaving all filters off. For class comparisons between groups of arrays, unpaired samples were used and the random variance model was selected, with the univariate significance threshold set to 0.005. The restrictions for the univariate test were maintained as the default values of 10 for the maximum number of false discovered genes, 0.1 for the maximum proportion of false discoveries, and a 90% confidence level. Because of poor data correlation in one set of replicates, class comparisons were performed using all chips for the control group versus two of the three replicates for the treatment group (i.e., five groups are the minimum number required for class comparisons).

[4] = tested on: frataxin mRNA in GM15851 normal lymphoid cell line; test: qRT-PCR of frataxin mRNA, normal cell line; assay type: cell-based, human
Description: as §1
Cell Culture. […] Cell growth and morphology were monitored by phase contrast microscopy and viability by trypan blue exclusion and an ATP assay (ApoSENSOR™, BioVision). […]
as §2, §3

| Structure (SMILES) | binding to mismatch DNA sequence [1] | frataxin mRNA as % of the level in the normal cell line ([2]; GM15850, 2 μM) [%] | range of fold increases of frataxin mRNA in numerous experiments ([2]; GM15850, 2 μM) [fold] | increase of frataxin mRNA level ([2]; GM15850, 2 μM, 7 days, relative to GAPDH) [fold] | effect on frataxin mRNA levels, in words [2] | time for frataxin mRNA to decrease to pre-treatment levels after removal of polyamide ([2]; after induction 7 days, transfer to fresh medium lacking polyamide) [h] | effect of higher concentrations or longer incubation on frataxin transcription ([2]; compared with 2 μM, 7-day incubation) | genes down regulated [3] | genes up regulated [3] | number of genes with affected mRNA levels ([3]; 7 days) | effect on frataxin mRNA levels, in words [4] | transcript levels for frataxin (microarray) ([3]; 2 μM, 7 days) |
| --- | --- | --- | --- | --- | --- | --- | --- | --- | --- | --- | --- | --- |
| CN(C)CCCNC(=O)CCNC(=O)c1nc(NC(=O)CCNC(=O)c2cc(NC(=O)c3nc(NC(=O)CCNC(=O)c4cc(NC(=O)c5nccn5C)cn4C)cn3C)cn2C)cn1C [FA1, ImPyβImPyβImβDp] | Neither FA1 nor FA3 bound this DNA sequence | ≤ 45 | 2.0 to 3.6 | 2.5 | increased frataxin mRNA levels | 96 | Neither higher concentrations of FA1 nor longer incubations times increased frataxin transcription | no genes | two genes | two genes | did not change frataxin mRNA levels | – |
| CN(C)CCCNC(=O)CCNC(=O)c1cc(NC(=O)CCNC(=O)c2nc(NC(=O)c3nc(NC(=O)CCNC(=O)c4cc(NC(=O)c5nccn5C)cn4C)cn3C)cn2C)cn1C [FA2, ImPyβImImβPyβDp] | – | – | – | – | modest increase in frataxin transcription | – | – | – | – | one gene | no change in frataxin mRNA | not changed |

— patent US20060270727A1, “Small molecule therapeutics and uses therefor” (priority 2005, published 2006)
